pIC50: −log10 of the molar value.
What was measured:
Assay type in all cases: cell-based, Human
[1] = system: ERK; experiment: Western blotting of MAPK pathway analytes in A375 cells treated for 24 hr; conditions: A375 melanoma cells with constitutively activated MAPK, FIG. 1
Method: (§1) Human H1666 NSCLC (BRAFG466V mutant) and A375 melanoma cells (BRAFV600E mutant) were purchased from the American Type Culture Collection (Manassas, Va.) and grown in RPMI or DMEM, respectively, in the presence of fetal bovine serum (10%), 2 mM L-glutamine and antibiotics (100 IU/ml penicillin and 100 μg/ml streptomycin) purchased from Sigma Aldrich. Cells were maintained at 37° C., 5% CO2 atmosphere.
Cells, treated with compound for 24 hr, were lysed in RIPA buffer (CST, Danvers, Mass., USA) on ice and clarified by centrifugation. Equal amounts of proteins were resolved by SDS-PAGE and immunoblotted with indicated antibodies. The antigen-antibody complex was visualized and quantitated using an Odyssey system (LI-COR, Lincoln, Nebr., USA).
The mitogen-activated protein kinase (MAPK) signal transduction cascade is dysregulated in a majority of human tumors.

[2] = system: A375 melanoma cells (BRAFV600E mutant); experiment: Cell viability (Cell Titer-Glo) in A375 melanoma cells, single agents and matrix combination; conditions: for cells killed / concentration that killed 100% of the cells: 72 hr; for cells killed: FIG. 3; for concentration that killed 100% of the cells: FIG. 2; for pIC50: Homo sapiens, A-375, 72 hr, FIG. 2, read-out: concentration that killed 50% of the cells
Method: as §1
(§2) Cell viability was measured using the Cell Titer-Glo assay (Promega). In brief, cells were plated in 96-well plates in triplicate at optimal seeding density (determined empirically for each cell line) and incubated at 37° C., 5% CO2 atmosphere for 24 hr prior to the addition of drug or vehicle (0.3% DMSO) to the culture medium. At the end of the assay, Cell Titer-Glow was added to the wells per manufactures recommendation, shaken for two minutes and incubated for 10 minutes at room temperature. Luminescence (0.1 sec) was measured with a Victor II microplate reader (Perkin Elmer) and the resulting data were used to calculate cell viability, normalized to vehicle control.
Matrix style combinations between AZD6244 and Ganetespib were performed in A375 melanoma cells. Cells were exposed to AZD6244, ganetespib or the combination of the two concurrently for 72 hr and viability was assessed.
Combination Index (CI) was then determined using the median effect analysis software CalcuSyn 2.0 (CalcuSyn, Inc.). A Combination Index greater than one, equal to one or less than one indicates antagonism, additivity and synergism, respectively.

[3] = system: H1666 NSCLC (BRAFG466V mutant); experiment: Cell viability (Cell Titer-Glo) in H1666 NSCLC cells, single agents and combination; conditions: FIG. 5
Method: as §1, §2
The combination of ganetespib and AZD6244 was performed in the NSCLC cell line H1666. Similar to A375 cells, the combination of both compounds yielded greater anticancer activity than monotherapy. […]

Row | Compound | disruption of activation of the MEK substrate ERK / abrogation of ERK activity (western blot) [1] | cells killed ([2]; AZD6244 24 nM alone) | concentration that killed 100% of the cells [2] | pIC50 [2] | cells killed ([3]; AZD6244 118 nM alone) | cells killed ([2]; ganetespib 30 nM alone) | cells killed ([3]; ganetespib 68 nM alone)
1 | Cn1cnc2c(F)c(Nc3ccc(Br)cc3Cl)c(C(=O)NOCCO)cc21 [AZD6244, 6-(4-bromo-2-chloro-phenylamino)-7-fluoro-3-methyl-3H-benzoimidazole-5-carboxylic acid (2-hydroxy-ethoxy)-amide] | highly effective | 10% | 228 nM | 7.19 | approximately 50% | – | –
2 | CC(C)c1cc(-c2nnc(O)n2-c2ccc3c(ccn3C)c2)c(O)cc1O [ganetespib, 3-(2,4-dihydroxy-5-isopropyl-phenyl)-4-(1-methyl-indol-5-yl)-5-hydroxy-[1,2,4] triazole] | highly effective | – | 35 nM | 7.82 | – | 20% | approximately 50%

Source: US20140228418A1, “COMBINATION THERAPY OF HSP90 INHIBITORY COMPOUNDS WITH MEK INHIBITORS” (Synta Pharmaceuticals Corp., priority 2011, published 2014)
